Earlier results as cited in patent US20100120733A1, “STEROID MODULATORS OF GLUCOCORTICOID RECEPTOR” (AUSPEX PHARMACEUTICALS, INC., priority 2008, published 2010).

Conditions: pooled data

SMILES | elimination half-life
CC(C)C(=O)OCC(=O)[C@@]12O[C@H](C3CCCCC3)O[C@@H]1C[C@H]1[C@@H]3CCC4=CC(=O)C=C[C@]4(C)[C@H]3[C@@H](O)C[C@@]12C [ciclesonide, 16,17-[[(R)-cyclohexylmethylene]bis(oxy)]-11-hydroxy-21-(2-methyl-1-oxopropoxy)-(11-beta,16-alpha)-pregna-1,4-diene-3,20-dione] | 0.71 h
C[C@]12C=CC(=O)C=C1CC[C@@H]1[C@@H]2[C@@H](O)C[C@@]2(C)[C@H]1C[C@H]1O[C@@H](C3CCCCC3)O[C@]12C(=O)CO [des-CIC, desisobutyryl-ciclesonide] | 3.5 h
